Source: patent US8278482B2, “Antimicrobial N-chlorinated compositions” (priority 2008, dated 2012)
Like-named read-outs stand apart in the source and are kept apart here.

How the values were obtained:
Assay type in all cases: cell-based
[1] = test system: Staphylococcus aureus (ATCC 29213); assay: Antimicrobial activity (MBC), S. aureus ATCC 29213
Method: (§1) To determine antimicrobial activity, Escherichia coli (ATCC 25922), Staphylococcus aureus (ATCC 29213), Pseudomonas aeruginosa (ATCC 27853), and Candida albicans (ATCC 10231) were used in primary screening. In addition, Escherichia coli (MCC 80392), Staphylococcus aureus (MCC 91731), Pseudomonas aeruginosa (MCC 4438), and Candida albicans (MCC 50319), provided by Alcon Laboratories, Fort Worth, Tex., were used. The microbial cultures were diluted in sterile saline pH 4 to prepare inocula. Test compounds were titrated by stepwise two-fold dilutions in sterile saline pH 4. A total of 1.0×10^5 to 1.0×10^6 Colony Forming Units (CFU)/mL microbe was added to each tube, mixed by gentle vortexing, and then incubated at room temperature for 1 h. Microbial plating on Petri dishes (Tryptic Soy agar or Saboraud's Dextrose agar) was performed immediately after the designated exposure after neutralization of the test article dilutions in Dey-Engley Broth. Plates were incubated at 37° C., and the numbers of microbes were counted by direct colony count to quantitate the surviving microbes as CFU/mL. Positive growth controls were made with sterile 0.9% saline. Compounds were dissolved in unbuffered isotonic saline (SAL) or phosphate buffered saline (PBS) at pH 4 or pH 7 (using HCl and/or NaOH as needed). All compounds were tested three times. The results are tabulated to show the comparison of antimicrobial effectiveness range of the compounds.
(§2) Data shown are the Minimum Bactericidal Concentration (MBC) or Minimum Fungicidal Concentration (MFC) (≧99.9% kill) in μg/mL.

[2] = test system: Escherichia coli (ATCC 25922); assay: Antimicrobial activity (MBC), E. coli ATCC 25922
Method: as §1, §2

[3] = test system: Staphylococcus aureus (MCC 91731); assay: Antimicrobial activity (MBC), S. aureus MCC 91731; settings: 1 h exposure at room temperature
Method: as §1, §2

[4] = test system: Escherichia coli (MCC 80392); assay: Antimicrobial activity (MBC), E. coli MCC 80392; settings: 1 h exposure at room temperature
Method: as §1, §2

[5] = test system: Candida albicans (MCC 50319); assay: Antimicrobial activity (MFC), C. albicans MCC 50319; settings: 1 h exposure at room temperature
Method: as §1, §2

[6] = test system: Candida albicans (ATCC 10231); assay: Antimicrobial activity (MFC), C. albicans ATCC 10231
Method: as §1, §2

[7] = test system: mouse fibroblast cells (ATCC CCL-1, L929); assay: Cytotoxicity, WST-8 colorimetric assay; settings: 60 min exposure
Method: Cytotoxicity was assessed by a colorimetric assay system using the Dojindo™ cell counting kit containing 2-(2-methoxy-4-nitrophenyl)-3-(4-nitrophenyl)-5-(2,4-disulfophenyl)-2H-tetrazolium, monosodium salt (WST-8). In this assay, the WST-8 reagent was bioreduced by cellular dehydrogenases to a formazan product that is highly soluble in tissue culture medium.
In a standard assay, mouse fibroblast cells (ATCC CCL-1, L929), were cultured in Minimum Essential Medium, α-medium supplemented with 10% heat inactivated fetal bovine serum, L-glutamine, penicillin and streptomycin. Cells were trypsinized and counted under the microscope and seeded at 1.5×10^4 total cells per 100 μL per well of a flat-bottom 96-well plate in order to achieve ˜80% confluence after overnight incubation at 37° C. On the day of the assay, the tissue culture medium was removed and replaced with 30 μL of fresh medium.
Test articles were prepared as 2-fold serial dilutions and 170 μL of each dilution is added into each of 4-wells (total volume per well=200 μL). The test plate was then returned to the 37° C. incubator for 60 min. Immediately after the exposed time, test article from each well was replaced with 200 μL of fresh media. Plates were incubated at 37° C. for 18-20 hours. The following day growth medium was replaced with 100 μL/well of fresh medium containing 10 μL WST-8 reagent. Cells were incubated under growth conditions (5% CO2 at 37° C. humidified incubator), protected from light, until color development was achieved (usually 1-4 hours). Absorbance was read at 450 nm with reference wavelength at 750 nm using Molecular Device SpectraMax M5 plate reader. Untreated or vehicle only treated cells receiving WST-8 reagent served as positive cell proliferation controls.
The absorbance A450/750 from each well of untreated cells and from each well within the dilution series was measured. […] Next, a non-linear regression (curve fit) analysis was performed on all the absorbance data measured from the dilution series, including the absorbance data obtained from wells of the untreated control cells. For each dilution within the dilution series, an average A450/750 was calculated from the four replicate wells.

[8] = test system: Pseudomonas aeruginosa (MCC 4438); assay: Antimicrobial activity (MBC), P. aeruginosa MCC 4438; settings: 1 h exposure at room temperature
Method: as §1, §2

[9] = ATCC29213, S. aureus ATCC 29213, pH 4 (Sal), 1 h exposure at room temperature, read-out: Minimum Bactericidal Concentration (MBC) (≧99.9% kill)
[10] = ATCC25922, E. coli ATCC 25922, pH 4 (Sal), 1 h exposure at room temperature, read-out: Minimum Bactericidal Concentration (MBC) (≧99.9% kill)
[11] = ATCC10231, C. albicans ATCC 10231, pH 4 (Sal), 1 h exposure at room temperature, read-out: Minimum Fungicidal Concentration (MFC) (≧99.9% kill)

Row | Structure (SMILES) | MBC [1, 9] | MBC [2, 10] | Minimum Bactericidal Concentration (MBC) (≧99.9% kill) ([3]; pH 4 (Sal)) | Minimum Bactericidal Concentration (MBC) (≧99.9% kill) ([3]; pH 7 (PBS)) | Minimum Bactericidal Concentration (MBC) (≧99.9% kill) ([4]; pH 4 (Sal)) | Minimum Bactericidal Concentration (MBC) (≧99.9% kill) ([4]; pH 7 (PBS)) | Minimum Fungicidal Concentration (MFC) (≧99.9% kill) ([5]; pH 4 (Sal)) | Minimum Fungicidal Concentration (MFC) (≧99.9% kill) ([5]; pH 7 (PBS)) | MFC [6, 11] | CT50 (concentration that results in survival of 50% of the cells) ([7]; pH 4 (Sal)) | Minimum Bactericidal Concentration (MBC) (≧99.9% kill) ([8]; pH 4 (Sal)) | Minimum Bactericidal Concentration (MBC) (≧99.9% kill) ([8]; pH 7 (PBS)) | MBC ([1]; ATCC29213, S. aureus ATCC 29213, pH 7 (PBS), 1 h exposure at room temperature, read-out: Minimum Bactericidal Concentration (MBC) (≧99.9% kill)) | MBC ([2]; ATCC25922, E. coli ATCC 25922, pH 7 (PBS), 1 h exposure at room temperature, read-out: Minimum Bactericidal Concentration (MBC) (≧99.9% kill)) | MFC ([6]; ATCC10231, C. albicans ATCC 10231, pH 7 (PBS), 1 h exposure at room temperature, read-out: Minimum Fungicidal Concentration (MFC) (≧99.9% kill)) | CT50 (concentration that results in survival of 50% of the cells) ([7]; pH 7 (PBS)) | MBC ([1]; ATCC29213, 1 h, pH 4, read-out: Minimum Bactericidal Concentration (MBC) (≧99.9% kill)) | MBC ([2]; ATCC25922, 1 h, pH 4, read-out: Minimum Bactericidal Concentration (MBC) (≧99.9% kill)) | MFC ([6]; ATCC10231, 1 h, pH 4, read-out: Minimum Fungicidal Concentration (MFC) (≧99.9% kill)) | CT50 (concentration that results in survival of 50% of the cells) ([7]; pH 4 (Acetate))
1 | CC(C)(CC[N+]1(C)CCCCC1)N(Cl)Cl.[Cl-] [Compound 21-80, 1-(3-(Dichloroamino)-3-methylbutyl)-1-methylpiperidinium chloride] | 4 µg/mL | 2 µg/mL | 4 µg/mL | >256 µg/mL | 4 µg/mL | 256 µg/mL | 64 µg/mL | >512 µg/mL | 32 µg/mL | 0.9 mM | 4 µg/mL | >256 µg/mL | – | – | – | – | – | – | – | –
2 | CC[N+](C)(CC)CCC(C)(C)N(Cl)Cl.[Cl-] [Compound 21-114, 3-(Dichloroamino)-N,N-diethyl-N-3-dimethylbutan-1-ammonium chloride] | 2 µg/mL | 8 µg/mL | 4 µg/mL | 512 µg/mL | 2 µg/mL | 512 µg/mL | – | – | 16 µg/mL | 1.3 mM | 4 µg/mL | 1024 µg/mL | – | – | – | – | – | – | – | –
3 | CC(C)(CC[N+](C)(C)C)N(Cl)Cl.[Cl-] [Compound 21-32, 3-(Dichloroamino)-N,N,N-3-tetramethylbutan-1-ammonium chloride] | 2 µg/mL | 2 µg/mL | 1 µg/mL | 256 µg/mL | 8 µg/mL | 256 µg/mL | 32 µg/mL | >1024 µg/mL | 64 µg/mL | 1.7 mM | – | 512 µg/mL | 512 µg/mL | 128 µg/mL | > 4100 µg/mL | 1.8 mM | – | – | – | –
4 | CC(C)(C[N+](C)(C)C)N(Cl)Cl [Compound 21-30, 2-(Dichloroamino)-N,N,N-2-tetramethylpropan-1-ammonium chloride] | – | – | 8 µg/mL | 512 µg/mL | 16 µg/mL | 512 µg/mL | 256 µg/mL | >2048 µg/mL | – | 0.5 mM | – | – | – | – | – | 0.5 mM | 8 µg/mL | 16 µg/mL | 128 µg/mL | –
5 | CC(C)(CCS(=O)(=O)CC[N+](C)(C)C)N(Cl)Cl.[Cl-] [Compound 21-02, 2-(3-(Dichloroamino)-3-methylbutylsulfonyl)-N,N,N-trimethylethanammonium chloride] | 2 µg/mL | 8 µg/mL | – | – | – | – | – | – | 32 µg/mL | <0.03 mM | – | – | – | – | – | – | – | – | – | –
6 | CCCC[N+](C)(C)CCC(C)(C)N(Cl)Cl.[Cl-] [Compound 21-124, N-Butyl-3-(dichloroamino)-N,N,3-trimethylbutan-1-ammonium chloride] | 2 µg/mL | 8 µg/mL | – | – | – | – | – | – | 64 µg/mL | – | – | – | – | – | – | – | – | – | – | 1.0 mM
